# From PMC12721191, “Oxidative hypoxia drives TGF-β1–induced fibrosis under normoxia” (Redox Biology, 2025)
# “Also recorded” adds a separate entry of the source.
# Experiments:
# [1] = Metabolic stability in pooled human liver microsomes; assay type: in vitro ADME; conditions: with NADPH, 0–60 min, read-out: half-life (t1/2) in HLMs
# Protocol: To initiate the reaction, NADPH generating system was added to the incubation samples and further incubated for specific time points (0, 5, 15, 30, 45, and 60 min). Then, sample aliquots were taken and terminated with cold acetonitrile.
# [2] = tested on: A549; experiment: MTT cytotoxicity assay; assay type: cell-based, human; conditions: two cell lines including A549, up to 7 μM, with or without TGF-β1
# Protocol: Cells (8 × 10^3 per well, 96-well) were treated as indicated, incubated with 0.5 mg/mL MTT for 4 h, solubilized in DMSO, and read at 570 nm.
# Cells were seeded at 8 × 10³ cells per well in 200 µL of medium in a 96-well plate. The next day, the medium was replaced with medium containing the test compound(s) at the desired concentration(s) and incubated for the specified duration. After the incubation, the medium was discarded and replaced with 0.5 mg/mL Thiazolyl Blue Tetrazolium Bromide in PBS. Following a 4 h incubation at 37 °C, the formazan crystals were dissolved in DMSO, and absorbance was measured at 570 nm using a SUNRISE™ microplate reader. The relative cell viability was calculated based on the optical density values.
# [3] = tested on: HIF-1α–EGFP in A549; experiment: pg-HIF-1α–EGFP fluorescence in transfected A549; assay type: cell-based, human; conditions: A549, co-treatment with TGF-β1
# Protocol: pg-HIF-1α–EGFP was introduced via jetOPTIMUS®; GFP fluorescence was quantified 48 h post-transfection.
# Transient transfection of A549 cells with pg-HIF-1α–EGFP was performed using jetOPTIMUS® according to the manufacturer’s protocol. Following 48 hr of transfection, the medium was replaced, and cells were treated with TGF-β1 at the specified concentration and duration before further analysis. Cell imaging was performed using an EVOS™ M7000 at 10×, 20×, or 40× magnification. GFP fluorescence intensity was measured using ImageJ. The mean fluorescence within the regions of interest (ROIs) was calculated after background subtraction, and values were normalized to the control condition
# [4] = biological target: CYP3A (Homo sapiens, UniProt P08684); experiment: Cytochrome P450 inhibition assay in HLMs; assay type: in vitro ADME; conditions: pooled human liver microsomes, probe midazolam (1'-hydroxylation), up to 50 μM
# Sequence of CYP3A (P08684 2-503): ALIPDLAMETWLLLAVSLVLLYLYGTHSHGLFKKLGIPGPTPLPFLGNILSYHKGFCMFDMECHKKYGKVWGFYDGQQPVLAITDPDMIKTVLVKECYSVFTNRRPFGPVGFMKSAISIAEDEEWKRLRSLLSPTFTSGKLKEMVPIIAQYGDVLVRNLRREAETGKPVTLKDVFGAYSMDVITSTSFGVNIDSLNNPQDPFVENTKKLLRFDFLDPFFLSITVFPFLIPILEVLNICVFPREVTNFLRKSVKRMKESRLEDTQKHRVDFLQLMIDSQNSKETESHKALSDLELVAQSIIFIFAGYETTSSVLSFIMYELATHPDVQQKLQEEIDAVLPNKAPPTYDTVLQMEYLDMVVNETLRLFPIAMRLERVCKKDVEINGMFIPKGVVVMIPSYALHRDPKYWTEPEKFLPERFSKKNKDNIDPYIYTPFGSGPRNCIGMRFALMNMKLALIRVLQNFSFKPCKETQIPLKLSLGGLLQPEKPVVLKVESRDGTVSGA
# Protocol: (§1) Cytochrome P450 Inhibition Assay: […] All experiments were performed in triplicate. Phenacetin O-deethylase, coumarin hydroxylase, bupropion hydroxylase, amodiaquine N-deethylase, tolbutamide 4-hydroxylase, S-mephenytoin hydroxylase, dextromethorphan O-demethylase, chlorozoxazone 6-hydroxylase, and midazolam 1’-hydroxylase activities were determined as probe activities for CYP1A2, CYP2A6, CYP2B6, CYP2C8, CYP2C9, CYP2C19, CYP2D6, CYP2E1, and CYP3A, respectively, using cocktail incubation and tandem mass spectrometry, as described previously^2,3.
# [5] = biological target: T1, CYP2A6 (Homo sapiens, UniProt P11509); experiment: Cytochrome P450 inhibition assay in HLMs; assay type: in vitro ADME; conditions: Coumarin 7-hydroxylation, pooled HLMs, up to 50 μM
# T1 construct: tissue Xenotech H0630; host or cells: pooled human liver microsomes
# T1 sequence (P11509 1-494): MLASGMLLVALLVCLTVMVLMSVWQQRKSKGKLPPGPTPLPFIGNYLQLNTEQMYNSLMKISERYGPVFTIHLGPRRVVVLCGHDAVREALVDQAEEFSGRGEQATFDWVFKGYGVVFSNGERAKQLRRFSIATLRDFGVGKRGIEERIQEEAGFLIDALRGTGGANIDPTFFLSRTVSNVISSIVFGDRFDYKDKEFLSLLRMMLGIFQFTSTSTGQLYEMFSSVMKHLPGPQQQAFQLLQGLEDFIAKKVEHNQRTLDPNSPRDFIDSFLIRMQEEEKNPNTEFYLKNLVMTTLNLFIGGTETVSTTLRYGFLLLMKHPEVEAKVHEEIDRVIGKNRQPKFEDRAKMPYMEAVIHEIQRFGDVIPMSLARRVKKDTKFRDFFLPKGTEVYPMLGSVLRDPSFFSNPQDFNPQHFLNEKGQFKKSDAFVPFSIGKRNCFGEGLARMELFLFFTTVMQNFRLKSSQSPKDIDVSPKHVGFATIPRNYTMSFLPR
# Protocol: as §1
# [6] = biological target: T2, CYP1A2 (Homo sapiens, UniProt P05177); experiment: Cytochrome P450 inhibition assay in HLMs; assay type: in vitro ADME; conditions: Phenacetin O-deethylation, pooled HLMs, up to 50 μM
# T2 sequence (P05177 1-516): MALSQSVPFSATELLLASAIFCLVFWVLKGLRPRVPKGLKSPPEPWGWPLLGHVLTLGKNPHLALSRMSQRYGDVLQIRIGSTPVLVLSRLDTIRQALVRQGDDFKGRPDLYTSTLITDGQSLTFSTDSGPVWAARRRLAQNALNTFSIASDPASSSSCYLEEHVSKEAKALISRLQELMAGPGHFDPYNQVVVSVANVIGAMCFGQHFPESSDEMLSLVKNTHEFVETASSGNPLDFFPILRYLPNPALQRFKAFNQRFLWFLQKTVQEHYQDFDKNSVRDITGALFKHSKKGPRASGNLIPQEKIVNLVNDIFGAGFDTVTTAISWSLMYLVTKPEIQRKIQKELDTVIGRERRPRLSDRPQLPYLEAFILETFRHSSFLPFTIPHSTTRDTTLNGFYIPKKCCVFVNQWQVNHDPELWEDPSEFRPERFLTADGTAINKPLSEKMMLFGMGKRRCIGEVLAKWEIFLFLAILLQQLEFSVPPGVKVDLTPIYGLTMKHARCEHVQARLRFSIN
# Protocol: as §1
# [7] = biological target: T3, CYP2B6 (Homo sapiens, UniProt P20813); experiment: Cytochrome P450 inhibition assay in HLMs; assay type: in vitro ADME; conditions: Bupropion hydroxylation, pooled HLMs, up to 50 μM
# T3 construct: tissue Xenotech H0630; host or cells: pooled human liver microsomes
# T3 sequence (P20813 1-491): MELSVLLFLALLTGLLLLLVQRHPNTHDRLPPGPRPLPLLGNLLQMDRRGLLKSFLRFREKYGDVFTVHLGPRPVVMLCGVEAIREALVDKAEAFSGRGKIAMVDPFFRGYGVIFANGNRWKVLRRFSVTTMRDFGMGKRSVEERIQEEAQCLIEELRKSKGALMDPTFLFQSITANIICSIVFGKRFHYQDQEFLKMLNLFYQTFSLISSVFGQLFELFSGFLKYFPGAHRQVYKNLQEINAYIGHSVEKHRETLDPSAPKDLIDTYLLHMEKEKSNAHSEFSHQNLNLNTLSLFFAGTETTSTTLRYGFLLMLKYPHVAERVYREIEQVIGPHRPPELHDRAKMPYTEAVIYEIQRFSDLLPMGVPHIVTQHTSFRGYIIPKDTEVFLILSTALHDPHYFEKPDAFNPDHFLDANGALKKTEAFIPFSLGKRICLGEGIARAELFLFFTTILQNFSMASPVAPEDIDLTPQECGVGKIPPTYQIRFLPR
# Protocol: as §1
# [8] = tested on: A549; experiment: Western blot of HIF-1α, fibrosis and EMT markers in A549; assay type: cell-based, human
structure (smiles),measurement,setting,value
COc1ccc(-c2c(-c3ccc(O)c(OC)c3)oc3cc(OC)c(OC)cc3c2=O)cc1 [ACF-2],half-life at 1 µM,[1],> 1 h
same,cytotoxicity (MTT),[2],does not induce cellular cytotoxicity; also recorded: did not exhibit cytotoxic effects
same,TGF-β1–induced HIF-1α–EGFP GFP fluorescence intensity,[3],significantly attenuated the TGF-β1–induced increase in GFP fluorescence intensity
same,IC50,[4],> 50 µM
same,IC50,[5],> 50 µM
same,IC50,[6],> 50 µM
same,IC50,[7],> 50 µM
same,BLM-induced HIF-1α levels (Western blot),"[8]; A549, BLM 15 μM, 10 h",effectively suppressed
same,"fibronectin, α-SMA, N-cadherin (Western blot)","[8]; A549, TGF-β1 24 h, ACF-2 7 μM","coordinated suppression of fibrosis markers (fibronectin, α-SMA) and EMT marker (N-cadherin)"
same,COL3A1 and COL4A6 (Western blot),"[8]; A549, TGF-β1 24 h, ACF-2 co-treatment",dose-dependent reduction of fibrosis markers COL3A1 and COL4A6
